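Grown in 96-well plates, cells were treated for 48 hours with each compound at five concentrations. Insufficient inhibition: endpoint recorded as highest concentration tested. GI50 is the concentration that inhibits growth by half.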 Calls of active or inactive are those of the source. Rule as the data show it: active = GI50 up to about 1.1 µM and inactive = higher.
Columns and labels:
Assay in all cases: NCI-60 cell line screen, 48 h
786-0 = test system: 786-0
A549 = test system: A549
ACHN = test system: ACHN
CAKI-1 = test system: CAKI-1
CCRF-CEM = test system: CCRF-CEM
COLO 205 = test system: COLO 205
DLD-1 = test system: DLD-1
DMS-114 = test system: DMS-114
EKVX = test system: EKVX
HCT-116 = test system: HCT-116
HCT-15 = test system: HCT-15
HL-60 = test system: HL-60
HOP-18 = test system: HOP-18
HOP-62 = test system: HOP-62
HOP-92 = test system: HOP-92
HT-29 = test system: HT-29
IGROV-1 = test system: IGROV-1
K562 = test system: K562
KM-20L2 = test system: KM-20L2
KM12 = test system: KM12
LXFL 529 = test system: LXFL 529
M14 = test system: M14
M19-MEL = test system: M19-MEL
MOLT-4 = test system: MOLT-4
Malme-3M = test system: Malme-3M
NCI-H226 = test system: NCI-H226
NCI-H23 = test system: NCI-H23
NCI-H460 = test system: NCI-H460
NCI-H522 = test system: NCI-H522
OVCAR-3 = test system: OVCAR-3
OVCAR-4 = test system: OVCAR-4
OVCAR-8 = test system: OVCAR-8
RPMI-8226 = test system: RPMI-8226
RXF 393 = test system: RXF 393
RXF 631 = test system: RXF 631
SF-268 = test system: SF-268
SF-295 = test system: SF-295
SF-539 = test system: SF-539
SK-MEL-28 = test system: SK-MEL-28
SK-MEL-2 = test system: SK-MEL-2
SK-MEL-5 = test system: SK-MEL-5
SK-OV-3 = test system: SK-OV-3
SN12C = test system: SN12C
SNB-19 = test system: SNB-19
SNB-75 = test system: SNB-75
SR = test system: SR
SW-620 = test system: SW-620
TK-10 = test system: TK-10
U-251 = test system: U-251
UACC-257 = test system: UACC-257
UACC-62 = test system: UACC-62
UO-31 = test system: UO-31
XF498 = test system: XF498
A498 = test system: A498
BT-549 = test system: BT-549
DMS-273 = test system: DMS-273
DU-145 = test system: DU-145
HCC 2998 = test system: HCC 2998
Hs-578T = test system: Hs-578T
LOX IMVI = test system: LOX IMVI
MCF7 = test system: MCF7
MDA-MB-231 = test system: MDA-MB-231
MDA-MB-435 = test system: MDA-MB-435
MDA-N = test system: MDA-N
NCI/ADR-RES = test system: NCI/ADR-RES
OVCAR-5 = test system: OVCAR-5
PC-3 = test system: PC-3
SNB-78 = test system: SNB-78
T47D = test system: T47D

CC(C)C1CO[C@]2(C)CCC(=O)N12 (some centres not stated)
GI50 (786-0): > 100 µM (inactive)
GI50 (A549): > 100 µM (inactive)
GI50 (ACHN): > 100 µM (inactive)
GI50 (CAKI-1): > 100 µM (inactive)
GI50 (CCRF-CEM): > 100 µM (inactive)
GI50 (COLO 205): > 100 µM (inactive)
GI50 (DLD-1): > 100 µM (inactive)
GI50 (DMS-114): > 100 µM (inactive)
GI50 (EKVX): > 100 µM (inactive)
GI50 (HCT-116): > 100 µM (inactive)
GI50 (HCT-15): > 100 µM
GI50 (HL-60): > 100 µM (inactive)
GI50 (HOP-18): > 100 µM (inactive)
GI50 (HOP-62): > 100 µM (inactive)
GI50 (HOP-92): > 100 µM (inactive)
GI50 (HT-29): > 100 µM (inactive)
GI50 (IGROV-1): > 100 µM (inactive)
GI50 (K562): > 100 µM (inactive)
GI50 (KM-20L2): > 100 µM (inactive)
GI50 (KM12): > 100 µM (inactive)
GI50 (LXFL 529): > 100 µM (inactive)
GI50 (M14): > 100 µM (inactive)
GI50 (M19-MEL): > 100 µM (inactive)
GI50 (MOLT-4): > 100 µM (inactive)
GI50 (Malme-3M): > 100 µM (inactive)
GI50 (NCI-H226): > 100 µM (inactive)
GI50 (NCI-H23): > 100 µM (inactive)
GI50 (NCI-H460): > 100 µM (inactive)
GI50 (NCI-H522): > 100 µM (inactive)
GI50 (OVCAR-3): > 100 µM (inactive)
GI50 (OVCAR-4): > 100 µM (inactive)
GI50 (OVCAR-8): > 100 µM (inactive)
GI50 (RPMI-8226): > 100 µM (inactive)
GI50 (RXF 393): > 100 µM (inactive)
GI50 (RXF 631): > 100 µM (inactive)
GI50 (SF-268): > 100 µM (inactive)
GI50 (SF-295): > 100 µM (inactive)
GI50 (SF-539): > 100 µM (inactive)
GI50 (SK-MEL-28): > 100 µM (inactive)
GI50 (SK-MEL-2): > 100 µM (inactive)
GI50 (SK-MEL-5): > 100 µM (inactive)
GI50 (SK-OV-3): > 100 µM (inactive)
GI50 (SN12C): > 100 µM (inactive)
GI50 (SNB-19): > 100 µM (inactive)
GI50 (SNB-75): > 100 µM (inactive)
GI50 (SR): > 100 µM (inactive)
GI50 (SW-620): > 100 µM (inactive)
GI50 (TK-10): > 100 µM (inactive)
GI50 (U-251): > 100 µM (inactive)
GI50 (UACC-257): > 100 µM (inactive)
GI50 (UACC-62): > 100 µM (inactive)
GI50 (UO-31): > 100 µM (inactive)
GI50 (XF498): > 100 µM (inactive)

COC1/C=C/OC2(C)Oc3c(C)c(O)c4c(c3C2=O)C(=O)C=C(NC(=O)/C(C)=C\C=C\C(C)C(OC=O)C(C)C(O)C(C)C(OC(C)=O)C1C)C4=O (configuration not stated)
GI50 (786-0): 8.24 µM (inactive)
GI50 (A498): 18.6 µM (inactive)
GI50 (A549): 21 µM (inactive)
GI50 (ACHN): 8.67 µM (inactive)
GI50 (BT-549): 11.1 µM (inactive)
GI50 (CAKI-1): 12 µM (inactive)
GI50 (CCRF-CEM): 2.03 µM (inactive)
GI50 (COLO 205): 4.59 µM (inactive)
GI50 (DLD-1): 9.89 µM (inactive)
GI50 (DMS-114): 16.8 µM (inactive)
GI50 (DMS-273): 16.9 µM (inactive)
GI50 (DU-145): 18.8 µM (inactive)
GI50 (EKVX): 14.7 µM (inactive)
GI50 (HCC 2998): 19.6 µM (inactive)
GI50 (HCT-116): 4.82 µM (inactive)
GI50 (HCT-15): 8.61 µM
GI50 (HL-60): 2.33 µM (inactive)
GI50 (HOP-18): 5.36 µM (inactive)
GI50 (HOP-62): 18.7 µM (inactive)
GI50 (HOP-92): 13.5 µM (inactive)
GI50 (HT-29): 10.5 µM (inactive)
GI50 (Hs-578T): 15.2 µM (inactive)
GI50 (IGROV-1): 18.5 µM (inactive)
GI50 (K562): 3.61 µM (inactive)
GI50 (KM-20L2): 18.2 µM (inactive)
GI50 (KM12): 26.8 µM (inactive)
GI50 (LOX IMVI): 7.5 µM (inactive)
GI50 (LXFL 529): 6.5 µM (inactive)
GI50 (M14): 8.65 µM (inactive)
GI50 (M19-MEL): 13.1 µM (inactive)
GI50 (MCF7): 2.93 µM (inactive)
GI50 (MDA-MB-231): 13.4 µM (inactive)
GI50 (MDA-MB-435): 16 µM (inactive)
GI50 (MDA-N): 15.8 µM (inactive)
GI50 (MOLT-4): 3.01 µM (inactive)
GI50 (Malme-3M): 13.4 µM (inactive)
GI50 (NCI-H226): 13.6 µM (inactive)
GI50 (NCI-H23): 14.4 µM (inactive)
GI50 (NCI-H460): 21.1 µM (inactive)
GI50 (NCI-H522): 2.45 µM (inactive)
GI50 (NCI/ADR-RES): 17.5 µM (inactive)
GI50 (OVCAR-3): 3.76 µM (inactive)
GI50 (OVCAR-4): 7.4 µM (inactive)
GI50 (OVCAR-5): 20.7 µM (inactive)
GI50 (OVCAR-8): 15.3 µM (inactive)
GI50 (PC-3): 10.3 µM (inactive)
GI50 (RPMI-8226): 5.22 µM (inactive)
GI50 (RXF 393): 7.67 µM (inactive)
GI50 (RXF 631): 15.7 µM (inactive)
GI50 (SF-268): 17.7 µM (inactive)
GI50 (SF-295): 23.3 µM (inactive)
GI50 (SF-539): 17.6 µM (inactive)
GI50 (SK-MEL-28): 6.64 µM (inactive)
GI50 (SK-MEL-2): 20 µM (inactive)
GI50 (SK-MEL-5): 15.8 µM (inactive)
GI50 (SK-OV-3): 28.7 µM (inactive)
GI50 (SN12C): 15.2 µM (inactive)
GI50 (SNB-19): 14.5 µM (inactive)
GI50 (SNB-75): 18.3 µM (inactive)
GI50 (SNB-78): 20.1 µM (inactive)
GI50 (SR): 2.77 µM (inactive)
GI50 (SW-620): 4.04 µM (inactive)
GI50 (T47D): 3.65 µM (inactive)
GI50 (TK-10): 16.6 µM (inactive)
GI50 (U-251): 20.6 µM (inactive)
GI50 (UACC-257): 11.4 µM (inactive)
GI50 (UACC-62): 12.7 µM (inactive)
GI50 (UO-31): 16 µM (inactive)
GI50 (XF498): 4 µM (inactive)
